Measured values reported in article PMC7318243, “Computationally Empowered Workflow Identifies Novel Covalent Allosteric Binders for KRAS^G12C” (Chemmedchem, 2020).

Columns and labels:
[1] = molecular target: T1, KRAS^G12C (recombinant KRAS mutant G12C, C51S, C80L, C118S) (Homo sapiens, UniProt P01116, C118S/C51S/C80L/G12C); test: Covalent binding assay by mass spectrometry (intact mass, % covalent adduct); conditions: 25 µM protein, 25 µM compound, room temperature, 2 h
T1 construct: made in house
Description: (§1) One of the most synthetically accessible compounds, 1,6‐naphthyridin‐5(6H)‐one (1), was prepared (Table 1; Scheme S1). Structurally close to 1, isoquinolin‐1(2H)‐one 2 derivatives were also considered for the exploration of structure‐activity relationships (SAR). To measure the proportion of inhibitor reacting with Cys12 of the KRAS^G12C mutant, the bound/unbound protein ratio was quantified by mass spectrometry (MS). Then, the inhibition potency of these compounds towards KRAS^G12C was evaluated in biochemical assays measuring the activation of GDP‐bound KRAS^G12C or KRAS^WT by SOS1.19 […]
(§2) 3.4 Covalent binding assay by mass spectrometry
(§3) The percentage of covalent adduct formation at KRAS G12C was determined by intact mass determination. To this end, 25 µM recombinant KRAS mutant (G12C , C51S, C80L, C118S) was incubated with 25 µM compound (1% v/v DMSO final concentration) in 50 mM Tris, pH 8.0, 50 mM NaCl at room temperature for 2 h. Reaction mixture (20 µL) was acidified by addi tion of 4% v/v TFA (4 µL). LC-MS analysis was performed using a Waters SYNAPT G2 -S quadrupole time -of-flight mass spectrometer connected to a Waters nanoA CQUITY UPLC system. Samples were loaded onto a 2.1 × 5 mm MassPrep C4 guard column (Waters) and desalted with a short gradient (3 min) of increasing concentration of acetonitrile at a flow rate of 100 µL/min. Spectra were analyzed by using MassLynx v4.1 software and deconvoluted with the MaxEnt1 algorithm. Percent conversion was determined by the ratio of signal intensities of […] and KRASG12C + inhibitor. […]

KRAS^WT = molecular target: T2, KRAS^WT (Homo sapiens, UniProt P01116); test: Biochemical assay: KRAS^WT activation by SOS1CAT (HTRF, fluorescent GTP loading); conditions: 180 min pre-incubation with KRAS before addition of SOS1
T2 construct: The proteins KRASWT (aa 1–169, wild type), SOS1CAT (aa 564–); made in house
Description: as §1
3.3 Biochemical activity assays
Measurement of (i) KRASG12C activation by SOS1CAT and (ii) wild-type KRAS activation by SOS1CAT was performed following the previously described protocol, [19] with a pre-incubation time of the test compound with KRAS proteins extended to 180 min before addi tion of SOS1.
This assay quantifies SOS1 CAT mediated loading of KRAS G12C–GDP with a fluorescent GTP analogue. Detection of successful loading was achieved by measuring resonance energy transfer from anti-GST-terbium (FRET donor) bound to GST -KRASG12C to the loaded fluorescent GTP analogue (FRET acceptor). The fluorescent GTP analogue EDA –GTP–DY-647P1 [2'/3'-O-(2-aminoethyl-carbamoyl)guanosine-5'-triphosphate labelled with DY-647P1 (Dyomics GmbH, Germany)] was synthesized by Jena Bioscience (Germany) a nd supplied as a 1 mM aqueous solution. A KRASG12C working solution was prepared in assay buffer [10 mM HEPES pH 7.4 (AppliChem), 150 mM NaCl (Sigma), 5 mM MgCl2 (Sigma), 1 mM DTT (Thermo Fisher), 0.05% BSA Fraction V pH 7.0 (ICN Biomedicals), 0.0025% (v/v) Igepal (Sigma)] containing 100 nM GST-KRASG12C and 2 nM anti-GST-terbium (Cisbio, France). A SOS1 CAT working solution was prepared in an assay buffer containing 20 nM SOS1CAT and 200 nM EDA–GTP–DY-647P1. An inhibitor control solution was prepared in an assay buffer containing 200 nM EDA–GTP–DY-647P1 without […]
SOS1CAT. All steps of the assay were performed at 20 °C. A volume of 2.5 µL of the KRASG12C working solution was added to all wells of the test plate using a Multidrop dispenser (Thermo LabSystems). After 180 min, 2.5 µL of the SOS1CAT working solution was added to all wells, except for the inhibitor control solution wells. After 30 min incubation, HTRF was measured.
In the KRASWT activation by SOS1cat assay, human SOS1CAT mediated loading of GST-KRASWT– GDP was quantified with a fluorescent GTP analogue. The assay was performed as described above for the KRASG12C activation. […]
SYNAPT G2-S quadrupole time-of-flight mass spectrometer connected to a Waters nanoAcquity UPLC system. Samples were loaded on a 2.1 x 5 mm mass prep C4 guard column (Waters) and desalted with a short grad ient (3 min) of increasing concentrations of acetonitrile at a flow rate of 100 µL/min. Spectra were analyzed by using MassLynx v4.1 software and deconvoluted with the MaxEnt1 algorithm. Percent of conversion was determined by the ratio of signal intensiti es of apo-KRAS and KRAS + inhibitor.

KRAS^G12C = molecular target: T3, KRAS^G12C (Homo sapiens, UniProt P01116, C118S/C51S/C80L/G12C); test: Determination of kinact and KI by LC-MS occupancy over time; assay type: binding; conditions: for k inact (maximum potential rate of KRAS^G12C inactivation) / Ki: 10 µM KRAS^G12C, 10-100 µM inhibitor, 0-180 min; for Ki: read-out: K I (binding constant of the reversible binding event)
T3 construct: made in house
Description: as §2, §3
3.6 Determination of k inact and KI
The percentage of covalent adduct formation at KRASG12C was determined for compounds 1, 2 and 13 by intact mass determination. To this end, 25 µM of the same recombinant KRAS mutant as for the covalent binding assay (G12C, C51S, C80L, C118S) were incubated with 25 µM of compound (1% v/v final DMSO concentration) in 50 mM Tris, pH8, 50 mM NaCl at room temperature for 2 h. The reaction was acidified by adding 4 µL of 4% v/v TFA to 20 µL reaction […]
Liquid chromatography-mass spectrometry (LC-MS) analysis was performed using a Waters SYNAPT G2-S quadrupole time-of-flight mass spectrometer connected to a Waters nanoAcquity UPLC system. Samples were loaded on a 2.1 x 5 mm mass prep C4 guard column (Waters) and desalted with a short grad ient (3 min) of increasing concentrations of acetonitrile at a flow rate of 100 µL/min. Spectra were analyzed by using MassLynx v4.1 software and deconvoluted with the MaxEnt1 algorithm. Percent of conversion was determined by the ratio of signal intensiti es of apo-KRAS and KRAS + inhibitor.
The kinact / KI ratio was determined by measuring the total occupancy (% conversion) over time at different inhibitor concentrations. In detail, 10 µM KRASG12C were incubated in the same reaction buffer as above with 10 µM, 25 µM, 50 µM or 100 µM of inhibitor at different reaction times (0, 2, 20, 60 and 180 min), the reaction was quenched by adding 2 µL of 4% v/v TFA to 10 µL reaction volume and subsequently measured by LC -MS as described above. The observed occupancy percentage over time at a given inhibitor concentration was fit to the following equation using […]
% conversion = vi [1 − exp(−k ∗ t)]
The obtained kobs values were then plotted as a function of inhibitor concentration and fit to the […]
to yield the kinact and KI.[26]

Compound	MS assay [% binding] (KRAS^G12C bound fraction) [1] [%]	IC50 (KRAS^WT) [µM]	k inact/K I (KRAS^G12C) [M⁻¹ s⁻¹]	k inact (maximum potential rate of KRAS^G12C inactivation) (KRAS^G12C) [s⁻¹]	Ki (KRAS^G12C) [µM]
C=CC(=O)N1CCC(c2cc3ccc(-c4c(O)cccc4F)cc3c(=O)[nH]2)C1 (stereo not drawn) [Compound 2, 7-(2-Fluoro-6-hydroxyphenyl)-3-[1-(prop-2-enoyl)pyrrolidin-3-yl]isoquinolin-1(2H)-one]	35	> 20	55.05	0.00024	4.4
C=CC(=O)N1CCC(c2cc3cnc(-c4c(O)cccc4F)cc3c(=O)[nH]2)C1 (stereo not drawn) [Compound 13, 7-(2-Fluoro-6-hydroxyphenyl)-3-[1-(prop-2-enoyl)pyrrolidin-3-yl]-2,6-naphthyridin-1(2H)-one]	73	> 20	49.38	0.00159	32.2
C=CC(=O)N1CCC(c2cc3ncc(-c4c(O)cccc4F)cc3c(=O)[nH]2)C1 (stereo not drawn) [Compound 1, 3-(2-Fluoro-6-hydroxyphenyl)-7-[1-(prop-2-enoyl)pyrrolidin-3-yl]-1,6-naphthyridin-5(6H)-one]	80	> 20	26.72	0.00105	39.3
